Converted amounts (≈) assume the structure as drawn.

Holding throughout (type): functional
Assay [1] deals with P388. Description: Cytotoxicity against mouse P388 cells. Particulars: read-out: ED50 (the source's name).
The test system of assay [2] is KB. Description: Cytotoxicity against human KB cells. Particulars: read-out: ED50 (the source's name).
The subject of assay [3] is P388. Description: In vivo antitumor activity against mouse P388 cells at 0.125 ug/kg/day, ip.

In the case of `COc1cc([C@H]2Oc3c(OC)cc4ccc(=O)oc4c3O[C@@H]2CO)ccc1O` [CLEOMISCOSIN A], the EC50 in assay [1] was 0.4 µg/mL (≈ 1.04 µM); in assay [2], more than 10 µg/mL.

For orientation: T/C means the result in the treated group divided by that in the control group, in per cent. In assay [3], `COC(=O)[C@]12OC[C@]34[C@H]([C@@H](O)[C@@H]1O)[C@@]1(C)CC(=O)C(O)=C(C)[C@@H]1C[C@H]3OC(=O)[C@H](OC(=O)C=C(C)C)[C@@H]24` [BRUSATOL] displayed a T/C of 158%.

The values are drawn from ChEMBL document CHEMBL1151617, “Antitumor agents, 65. Brusatol and cleomiscosin-A, antileukemic principles from Brucea javanica” (1984).
